Data on 17 compounds can be found in patent US20240253023A1, “PERFLUORINATED AMIDE SALTS AND THEIR USES AS IONIC CONDUCTING MATERIALS” (priority 1996, published 2024).

Where a name gives a salt, the structure may show the parent alone.

Data set [1] is described as follows: reversible redox potential in poly (ethylene oxide) on a platinum electrode, towards a lithium electrode. Particulars: platinum electrode 125 μm. The data set is classed as physicochemical. On the procedure:
These salts have a reversible redox couple. In poly (ethylene oxide) a reversible potential≈3.4 V towards a lithium electrode was determined on a platinum electrode having a diameter of 125 μm.
This salt has two reversible redox couples. In poly (ethylene oxide), on a platinum electrode of a diameter of 125 μm, it was shown that there is a first redox couple having a potential≈3.2 V and a second redox couple having a potential≈3.8 V, these potentials being measured towards a lithium electrode.

A short description of data set [2]: solubility in organic solvents and polymers. As to conditions: for solubility in organic solvents: organic solvents (tetrahydrofurane, acetonitrile, dimethylformamide, ethyl acetate, glymes ...), mostly also in aprotic solvating or polar polymers.
A short description of data set [3]: ionic conductivity of salts and polyelectrolytes in polymer, liquid, gel or molten media. The class given is physicochemical.
The nature of data set [4]: oxidation potential towards a lithium anode. The class given is physicochemical.
The conditions of data set [5]: acid form; cited from earlier work.
Data set [6] can be described thus: cationic transport number of electrolytes. The data set is classed as physicochemical. Particulars: in poly (ethylene oxide).
Setting [7] is: in poly (ethylene oxide), O/Li 12/1, 60° C.

On to “di-lithium salt of 9-10-(propylsulfonamide-N-trifluoromethanesulfonyl)phenazine [Example 61]”, for which, in data set [1], the “potential of first redox couple” value was “≈ 3.2 V” and the “potential of second redox couple” value was “≈ 3.8 V”.

For the compound `CN(C)S(=O)(=O)[N-]S(=O)(=O)C(F)(F)F.CN(C)S(=O)(=O)[N-]S(=O)(=O)C(F)(F)F.CN(C)S(=O)(=O)[N-]S(=O)(=O)C(F)(F)F.[La+3]` [Example 30, lanthanum salt of trifluoromethanesulfonyl(dimethylaminosulfonyl)-imide], in data set [2], the “solubility in organic solvents” value is given as “highly soluble in the usual organic solvents”.

As for “potassium salt of N,N′,N″,N′″-perfluorobutanesulfonyl-Nickel(II) phtalocyaninetetrasulfonamide [Example 57]”, in data set [2], the “solubility in organic solvents” value is listed as “soluble in most usual organic solvents”.

As to `O=S(=O)(CC(F)(F)F)[N-]S(=O)(=O)C(F)(F)F.[Li+]` [Example 9, lithium salt of trifluoromethanesulfonyl(2,2,2-trifluoroethane-sulfonyl) imide], in data set [3] (setting [7]), the conductivity is given as 2.3×10^−4 S·cm^−1.

As to `O=S(=O)([N-]S(=O)(=O)C(F)(F)F)c1nnc(C(F)(F)F)s1.[Li+]` [Example 35, lithium salt of trifluoromethanesulfonyl(5-trifluoromethyl-1,3,4-thiadiazole-5-sulfonyl)imide], the oxidation potential entry in data set [4] (0.5 M in acetonitrile) is “higher than 4.5 V”. For the same compound, the “solubility in organic solvents” value in data set [2] is “soluble in most usual organic solvents”.

Usually pKa stands for the negative logarithm of the acid dissociation constant. On to `O=S(=O)(NS(=O)(=O)C(F)(F)F)C(F)(F)F` [H[CF3SO2—N—SO2CF3]], for which the pKa in data set [5] was 1.95.

As for `O=S(=O)(CCc1c2ccccc2cc2ccccc12)[N-]S(=O)(=O)C(F)(F)F.[K+]` [Example 56, potassium salt of trifluoromethanesulfonyl(anthracenyl-9-ethanesulfonyl)imide], in data set [2], the “solubility in organic solvents” value was “soluble in most usual organic solvents”.

In the case of `CN(C)S(=O)(=O)[N-]S(=O)(=O)C(F)(F)F.[K+]` [potassium salt of trifluoromethanesulfonyl-(dimethylaminosulfonyl)irnide], the conductivity in data set [3] (in poly (ethylene oxide), O/K=12/1, 60° C.) is given as 5.10^−4 S·cm^−1.

Take `CCCCC(CC)CN(CC(CC)CCCC)S(=O)(=O)[N-]S(=O)(=O)C(F)(F)F.CCN1C(=CC=CC=CC=Cc2sc3ccccc3[n+]2CC)Sc2ccccc21` [3,3′-diethylthiatricarbocyanine of di-2-ethylhexylaminosulfonyl(trifluoro-methanesulfonyl)imide]: in data set [2] (dichloromethane or methylene chloride, polymer matrices with low polarity such as methyl polymethacrylate), the “solubility in low polar solvents” value is reported as “very soluble in low polar solvents”.

In the case of `O=S(=O)(NS(=O)(=O)C(F)(F)F)OC(C(F)(F)F)C(F)(F)F` [Example 37 molten salt, trifluoromethanesulfonyl(1,1,1,3,3,3-hexafluoro-2-propanoxysulfonyl)imide 1-ethyl-3-methyl-1H-imidazolium], in data set [3] (neat molten salt, temperature not stated), the conductivity was 3.91×10^−3 S·cm^−1.

As to `CCCN(CCC)S(=O)(=O)[N-]S(=O)(=O)C(F)(F)F.[Li+]` [lithium salt of trifluoromethanesulfonyl(dipropylaminosulfonyl)-imide], the conductivity in data set [3] (in poly (ethylene oxide), O/Li=12/1, temperature not stated) is listed as 1.4×10^−4 S·cm^−1. In data set [6] (O/Li=12/1), this compound came in with a cationic transport number of 0.42.

“N-trifluoromethanesulfonyl-2-aminoacridine tetraethylammonium [Example 54]”: in data set [2], the “solubility in organic solvents” value is listed as “soluble in most usual organic solvents”.

As for `CN(C)c1cccc2c(S(=O)(=O)[N-]S(=O)(=O)C(F)(F)F)cccc12.[K+]` [Example 53, potassium trifluoromethane-sulfonyl(5-dimethylamino-1-naphthalenesulfonyl)imide], the “solubility in organic solvents” value in data set [2] is recorded as “soluble in most polar organic solvents”.

For the compound `O=S(=O)(Nc1nnc(C(F)(F)F)s1)C(F)(F)F` [Example 34, trifluoromethanesulfonyl(5-trifluoromethyl-1,3,4 thiadiazole)amide], the oxidation potential result in data set [4] (1 M in ethylene carbonate and dimethylcarbonate (2:1)) is recorded as “higher than 4 V”. Further, in data set [2], the “solubility in organic solvents” value is listed as “soluble in most usual organic solvents”.

With `CCCCCCCCCCCCS(=O)(=O)[N-]S(=O)(=O)C(F)(F)F.[Li+]` [lithium salt of trifluoromethanesulfonyl(dodecylsulfonyl)imide], the cationic transport number entry in data set [6] (O/Li=16/1) was “about 0.55”.

With `CN(C)S(=O)(=O)[N-]S(=O)(=O)C(F)(F)F.[Li+]` [lithium salt of trifluoromethanesulfonyl-(dimethylaminosulfonyl)imide], the conductivity in data set [3] (setting [7]) is on record as 1.2×10^−4 S·cm^−1.

Consider `CCN(CC)S(=O)(=O)[N-]S(=O)(=O)C(F)(F)F.CCN(CC)S(=O)(=O)[N-]S(=O)(=O)C(F)(F)F.CCN(CC)S(=O)(=O)[N-]S(=O)(=O)C(F)(F)F.[Yb+3]` [Yb(DETFSI)3, ytterbium salt of diethylaminosulfonyl(trifluoromethanesulfonyl)imide], for which the solubility in dichloromethane entry in data set [2] (dichloromethane) was “good solubility in dichloromethane”.
